Read-outs that look alike come from different tables or passages of the source.
Key:
[1] = target: T1, 3H-Pirenzepine bonding to rat brain homogenate (Rattus norvegicus, UniProt P08482); assay: 3H-Pirenzepine bonding inhibition test, rat brain homogenate (Test Example 2); format: binding, SD male rat
T1 construct: to obtain a rat brain homogenate for testing; from tissue; host or cells: brain without cerebellum, SD male rat (homogenate, 1000×g supernatant)
T1 sequence (P08482 1-460): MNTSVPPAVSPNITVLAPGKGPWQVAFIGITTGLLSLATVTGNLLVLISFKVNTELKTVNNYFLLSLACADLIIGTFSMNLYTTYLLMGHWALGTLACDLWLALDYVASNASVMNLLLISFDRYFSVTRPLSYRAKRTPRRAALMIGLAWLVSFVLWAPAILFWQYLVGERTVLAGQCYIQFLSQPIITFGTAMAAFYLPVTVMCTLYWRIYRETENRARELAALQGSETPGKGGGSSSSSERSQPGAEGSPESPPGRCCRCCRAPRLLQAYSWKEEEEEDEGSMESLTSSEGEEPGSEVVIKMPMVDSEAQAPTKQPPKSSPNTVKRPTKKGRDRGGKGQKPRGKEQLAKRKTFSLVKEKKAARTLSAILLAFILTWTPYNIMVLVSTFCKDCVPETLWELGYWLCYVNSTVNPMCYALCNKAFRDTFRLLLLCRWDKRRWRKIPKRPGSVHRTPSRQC
Description: A rat brain homogenate was prepared according to the method of Yamamura and Synder (Proc. Nat. Acad. Sci. USA, Vol. 71, pp. 1725-1729 (1974)).
An SD male rat was sacrificed by decapitation, and the brain excised. After the cerebellum was removed, 0.32 M sucrose was added thereto in an amount 10 times the weight of the brain under ice cooling, followed by homogenizing in a Potter-Elvehjem glass homogenizer. The resulting homogenate was centrifuged at 1000×g for 10 minutes, the precipitate removed, and the supernatant further homogenized with a Polytron (manufactured by KINEMATICA) to obtain a rat brain homogenate for testing.
The method of Flynn and Mash (J. Pharm. Exp. Therm., Vol. 250, pp. 573-581 (1989)) was followed.
A mixture consisting of 0.035 ml of the above prepared rat brain homogenate (protein content: 0.6 mg), 1 ml of a 50 mM phosphoric acid buffer (pH 7.4) containing 2.0 nM ^3 H-pirenzepine, and 1 ml of a test compound dissolved in the same buffer was allowed to react at room temperature for 60 minutes. To the reaction mixture was added 3.0 ml of the same buffer as used above as cooled with ice, and the mixture was filtered through Whatman GF/B filter paper having been previously impregnated with a 0.1% polyethyleneimine solution for 60 minutes. The filter cake was washed twice with 3.0 ml of the same buffer, the filter paper taken out, an emulsion scintillator added, and the scintillation measured with a liquid scintillation counter to obtain a 50% inhibitory concentration (IC50) of the test compound on ^3 H-pirenzepine bonding to the rat brain homogenate.

male mouse = assay: Acute Toxicity Test (Test Example 3); format: in vivo; details: 100 mg/kg i.p., 5-week-old male mouse
Description: The compound of Example 11, suspended in 5% gum arabic, was intraperitoneally achninistered to a 5-week-old […] male mouse. General manifestation of toxicity was observed over 60 minutes after the administration, and the animal's death was observed up to 24 hours from the administration.

[2] = system: scopolamine-induced inhibition of memory retention; assay: Passive avoidance learning test, scopolamine-induced memory retention defect (Test Example 1); format: in vivo, mice; details: 5 min after scopolamine 0.25 mg/kg i.p., remembrance test after 24 h
Description: A passive avoidance learning test using mice was conducted to examine whether scopolamine-induced inhibition of memory retention can be improved by the compound of the present invention.
A training box composed of a light room and a dark room having the same structure was used. The dark room is designed so that a foot shock is given to a test animal via a grid of the floor. An opening is provided on the partitioning wall of the two rooms to let animals in and out freely.
Scopolamine hydrobromide dissolved in physiological saline was intraperitoneally administered to a mouse at a dose of 0.25 mg/kg.
Five minutes after the scopolamine administration, a test compound was intraperitoneally administered to the mouse at a dose shown in Table 1 below (test group).
The animal was put in the light room. Immediately after the animal moved into the dark room, a foot shock was given until the animal returned to the light room.
After 24 hours from the training, the animal was again put in the light room, and the time required for the animal's moving to the dark room was measured up to 300 seconds.
The data from the remembrance test were analyzed to obtain a percent prolongation of the memory retention time of the test group based on that of the control group having received no test compound.

[3] = 2.0 nM 3H-pirenzepine, pH 7.4, room temperature, 60 min, read-out: IC50 (50% inhibitory concentration on 3H-pirenzepine bonding)

| Structure (SMILES) | IC50 [1] [nM] | Percent Prolongation (of memory retention time vs control) ([2]; dose 1000 μg/kg i.p.) [%] | IC50 [1, 3] [nM] | also measured |
| --- | --- | --- | --- | --- |
| O=[N+]([O-])c1ccc(NCC23CCCN2CCC3)c2ccccc12 [Example 11, 1-(1-Azabicyclo[3.3.0]octan-5-yl)methylamino-4-nitronaphthalene] | 900 | 152.6 |  | general manifestation of toxicity (male mouse; observed over 60 minutes): neither general manifestation of toxicity nor death was observed; death (male mouse; observed up to 24 hours): neither general manifestation of toxicity nor death was observed; Percent Prolongation (of memory retention time vs control) ([2]; dose 1 μg/kg i.p.): 30.9%; Percent Prolongation (of memory retention time vs control) ([2]; dose 10 μg/kg i.p.): 91.7%; Percent Prolongation (of memory retention time vs control) ([2]; dose 100 μg/kg i.p.): 120.9% |
| O=[N+]([O-])c1c2ccccc2c(NCC23CCCN2CCC3)c2ccccc12 [Example 19, 9-(1-Azabicyclo[3.3.0]octan-5-yl)methylamino-10-nitroanthracene] |  |  | 1400 |  |
| CC(C)N(CCNc1ccc([N+](=O)[O-])c2ccccc12)C(C)C [Example 14, 1-(2-Diisopropylaminoethyl)amino-4-nitronaphthalene] |  |  | 900 |  |
| CN(CC12CCCN1CCC2)c1c([N+](=O)[O-])ccc2ccccc12 [Example 18, 1-[N-(1-Azabicyclo[3.3.0]octan-5-yl)methyl-N-methylamino]-2-nitronaphthalen] |  |  | 440 | Percent Prolongation (of memory retention time vs control) ([2]; dose 0.01 μg/kg i.p.): 117.9%; Percent Prolongation (of memory retention time vs control) ([2]; dose 0.1 μg/kg i.p.): 115.9% |
| O=[N+]([O-])c1cccc2c(NCC34CCCN3CCC4)cccc12 [Example 17, 1-(1-Azabicyclo[3.3.0]octan-5-yl)methylamino-5-nitronaphthalene] | 800 |  |  |  |
| CN(CC12CCCN1CCC2)c1ccc([N+](=O)[O-])c2ccccc12 [Example 15, 1[N-(1-Azabicyclo[3.3.0]octan-5-yl)methyl-N-methylamino]-4-nitronaphthalene] | 40 |  |  | Percent Prolongation (of memory retention time vs control) ([2]; dose 0.01 μg/kg i.p.): 111.6%; Percent Prolongation (of memory retention time vs control) ([2]; dose 0.1 μg/kg i.p.): 68.8%; Percent Prolongation (of memory retention time vs control) ([2]; dose 1 μg/kg i.p.): 85.2% |
| O=[N+]([O-])c1c(NCC23CCCN2CCC3)cnc2ccccc12 [Example 6, 3-(1-Azabicyclo[3.3.0]octan-5-yl)methylamino-4-nitroquinoline] |  | 55.1 | 1200 |  |
| Nc1c2c(nc3ccccc13)CCCC2 [THA, 1,2,3,4-tetrahydro-9-aminoacridine, reference compound] |  | 74.8 |  | Percent Prolongation (of memory retention time vs control) ([2]; dose 100 μg/kg i.p.): 24.4% |
| O=[N+]([O-])c1ccc(NCC23CCCN2CCC3)cc1 [Example 10, 1-(1-Azabicyclo[3.3.0]octan-5-yl)methylamino-4-nitrobenzene] |  | 26.5 |  |  |
